Data from US7897610B2, “Use of benzo[c]quinolizinium derivatives for the treatment of diseases that are linked to smooth muscle cell constriction” (Centre National de la Recherche Scientifique, priority 2002, dated 2011).
Values joined by “and” are separate entries in the source; they are usually repeats but may differ in a detail not shown here. Identical values can stand only once. “Also recorded” adds a separate entry of the source. Like-named read-outs stand apart in the source and are kept apart here.

Columns and labels:
[1] = tested on: aorta rings isolated from rats; experiment: Isolated organ technique: relaxation of rat aorta rings pre-contracted in hyperpotassium solution (80 mM KCl); assay type: cell-based; conditions: for EC50: Rattus norvegicus
Description: The experiments are carried out on the thoracic aorta of male rats of Wistar strain weighing 200 to 250 g, 7 to 8 weeks of age. The rat is stunned then placed in the supine position. After thoracotomy, the segment of the aorta comprised between the diaphragm and the right aortic arch is excised. The portion of aorta is immediately placed in a buffered physiological solution of modified Krebs type. The aorta is sectioned into 5 mm rings.
For certain preparations, the endothelium is removed mechanically using a needle surrounded by a wire which is turned in the aorta ring.
The aorta rings, after dissection, are suspended between two hooks one of which is fixed and the other is mobile. This mounting is placed in a chamber of Plexiglas (Emka Technologies), thermostatically-controlled at 37° C., containing 5 ml of physiological solution oxygenated by a gas mixture (95% O2-5% CO2). The thermostatically-controlled enclosure is supplied by a water bath. The mobile hook is suspended with a sensor connected to the interface (electromechanical transducer). This interface is connected on the one hand to an amplifier (amplification of the signal) and on the other hand to a computer (display and analysis of the signal). The IOX 1.565 program enables the processing and display of the signals on the computer screen. The Data Analyst and Prism 3.0 programs allow analysis of the results.
After mounting the aorta rings in the experimental device, these are stretched at a basal tension of 2.5 g. This tension corresponds to the optimum point of their tension/length relationship. Waiting for a stable state in the reference physiological medium is carried out over a period of approximately 1 hour with washing every 20 minutes. Following this equilibration period, the different experiments are carried out.
In order to be free of the relaxation/contraction mechanisms due to the endothelium, certain preparations are made devoid of the latter by mechanical destruction. In order to ensure effective destruction of the endothelium, a cholinergic test (ACh 10^−4 M) is carried out at the end of the first period of equilibration, on preparations pre-contracted by a hyperpotassium solution (80 mM of KCl).
Following this test, the preparations are subjected to several successive washings in order to re-establish a stable state. Once a stable state is reached, the different experiments can be carried out. The contractures due to the hyperpotassium solutions are obtained by the total replacement of the reference physiological solution by the hyperpotassium solution. The administration of the pharmacological substances is carried out in a cumulative fashion and directly in the isolated organ chambers whilst paying attention that the additional volume is not too high. The application of each new concentration only occurs after stabilization. In order to be aware of the reactivity state of the preparation at the end of manipulation, a hyperpotassium or noradrenergic test is carried out. If the preparation reacts in the direction of a contracture, the test is valid.
The composition of the reference physiological solution is a solution of modified Krebs type: NaCl: 120 mM; KCl: 4.7 mM; CaCl2: 2.5 mM; MgCl2: 1.2 mM; NaH2PO4: 1.2 mM; NaHCO3: 15 mM; Hepes: 10 mM; Glucose: 11 mM; pH=7.4. Hyperpotassium solutions containing different concentrations of KCl have been prepared according to the same principle. These solutions are used to provoke a contracture of the aorta ring by depolarisation of the smooth muscle cells. The hyperpotassium solution mainly used in the experiments contains 80 mM of KCl.

CFTR [2] = target: T1, CFTR (Rattus norvegicus, UniProt P34158); experiment: Iodide efflux in muscle cell freshly dissociated from rat aorta; assay type: cell-based
T1 construct: CFTR is detected at the level of its messenger RNA and at the level of protein in the smooth muscles; from tissue; host or cells: smooth muscle cells freshly dissociated from rat aorta
Excerpt: (§1) CFTR is detected at the level of its messenger RNA and at the level of protein in the smooth muscles. As negative control the inventors used musculus skeleti of rat at the level of which neither the messenger nor the protein are present. CFTR is detectable in the smooth muscle by immunoprecipitation and phosphorylation in vitro by the protein kinase A. The pharmacology of CFTR has been studied using iodide efflux in muscle cell freshly dissociated from rat aorta. […] Its inhibition profile is similar to that of epithelial CFTR (sensitivity to glibenclamide and DPC but not to Calixarene). […] Moreover, a greater contraction is observed in the KO animals in response to the constricting agents.

[3] = tested on: aorta rings with endothelium pre-contracted by arterenol; experiment: Isolated organ technique: relaxation of rat aorta rings pre-contracted by arterenol; assay type: cell-based
Description: The experiments are carried out on the thoracic aorta of male rats of Wistar strain weighing 200 to 250 g, 7 to 8 weeks of age. The rat is stunned then placed in the supine position. After thoracotomy, the segment of the aorta comprised between the diaphragm and the right aortic arch is excised. The portion of aorta is immediately placed in a buffered physiological solution of modified Krebs type. The aorta is sectioned into 5 mm rings. The aorta rings, after dissection, are suspended between two hooks one of which is fixed and the other is mobile. […] The thermostatically-controlled enclosure is supplied by a water bath. The mobile hook is suspended with a sensor connected to the interface (electromechanical transducer). This interface is connected on the one hand to an amplifier (amplification of the signal) and on the other hand to a computer (display and analysis of the signal). […] The Data Analyst and Prism 3.0 programs allow analysis of the results. After mounting the aorta rings in the experimental device, these are stretched at a basal tension of 2.5 g. This tension corresponds to the optimum point of their tension/length relationship. Waiting for a stable state in the reference physiological medium is carried out over a period of approximately 1 hour with washing every 20 minutes. Following this equilibration period, the different experiments are carried out. […]

[4] = tested on: anionic transport in smooth muscle cells of aorta rings; experiment: Iodide efflux (125I) on rat aorta rings; assay type: cell-based; set-up: key to iodide discharge speed / iodide discharge speed after stimulation: Ln(125I t1/125I t2)/(t1−t2), per min; key to increase of discharge speed over basal state: difference of Ln(125I t1/125I t2)/(t1−t2) values, per min; conditions: for iodide discharge speed / increase of discharge speed over basal state: hyperpotassium medium; for activation of anionic transport / discharge speed: smooth muscle cells of aorta rings
Description: The iodide efflux technique, perfected by Venglarick et al. (1990), allows measurement of the movement of ions and is described in detail in Derand et al. (2001).
The aorta rings of equivalent size, are incubated in 1 ml of filling solution composed of physiological solution of modified Krebs type or hyperpotassium solution (80 mM KCl) supplemented with 1.5 μl/ml of Na ^125I and 0.1 μl/ml of KI. After incubation for 1 hour 30 minutes at 37° C., 4 successive rinsings of two minutes are carried out in 1 ml of appropriate physiological solution (normal Krebs or hyperpotassium solution). An iodide efflux kinetics of the aorta rings is carried out for 12 min. After each minute, the content of each well is sampled and placed in hemolysis tubes, and radioactivity is counted with a gamma counter (Packard, Cobra II). At the 12th minute, the aorta rings are solubilized in Sodium Dodecyl Sulphate (SDS 0.1%)+NaOH (0.1 M). This stage allows the recovery of the residual radioactivity by cell destruction.
The total radioactivity of the cells is calculated by the addition of the counts per minute (cpm) of each collected fraction and of the cpm of the solubilized fraction (residual radioactivity). The curves are plotted expressing the efflux as a percentage of the cell content accumulated in the medium as a function of time. For example, the value attributed at time tn, corresponds to: 100×(Σ cpm obtained from t0 to tn)/total radioactivity. The instantaneous discharge speed is presented according to the formula Ln(^125It1/^125It2)/(t1−t2), where t1 and t2 are two successive times and ^125It1 and ^125It2 are the effluxes measured at time t1 and t2. In order to evaluate the effect of a substance, the activation ratio r=discharge speed after stimulation/discharge speed before stimulation is determined. The results (average±SEM) are compared using Student's statistical test for a paired value.

[5] = tested on: aorta rings of Cftr+/+ mice; experiment: Vasorelaxation of aorta rings contracted by 80 mM K+, Cftr+/+ mice; assay type: cell-based, mouse; conditions: for effect on pre-contracted aorta: Cftr+/+ rat and mouse tissues
Excerpt: as §1
(§2) a, graphs showing the vasorelaxation induced by the VIP neuropeptide (Vasoactive Intestinal Polypeptide) of aortas without endothelium of Cftr^+/+ (left) and Cftr^−/− (right) mice. The aorta rings are reversibly contracted by a hyperpotassium solution (solution of 80 mM K^+) then the effect of 300 nM VIP is measured. The absence of endothelium is verified by the addition of acetylcholine (ACh, 10^−5 M).
(§3) This effect is absent in Cftr^−/− mice (n=6). Average±SEM*P<0.05, ** P<0.01, *** P<0.001.

[6] = tested on: aorta rings of Cftr-/- mice; experiment: Vasorelaxation of aorta rings contracted by 80 mM K+, Cftr-/- mice; assay type: cell-based, mouse; conditions: pre-contracted aorta
Excerpt: as §1, §2, §3

human mammary arteries = experiment: Vasorelaxant effect on human mammary arteries; assay type: cell-based
Excerpt: The pharmacological effects of the compounds of the benzo[c]quinolizinium family, CFTR activators: 6-hydroxy-10-chlorobenzo[c]quinolizinium chloride (reference name: MPB-07) and 5-butyl-6-hydroxy-10-chlorobenzo[c]quinolizinium chloride (reference name: MPB-91), were studied on aorta rings isolated from rats and from human mammary arteries.

CFTR [7] = target: T2, CFTR (Homo sapiens, UniProt P13569); conditions: epithelial cells; cited from earlier work
T2 construct: In cells expressing the CFTR protein in an endogenous manner

[8] = comparison of FIG. 6, read-out: EC50, dose/response curves
[9] = summary statement of results, read-out: EC50, vasorelaxant effect
[10] = without endothelium, 250 μM, 1 minute after addition
[11] = without endothelium, 250 μM, 2 minutes after addition

T1 sequence (P34158 whole entry): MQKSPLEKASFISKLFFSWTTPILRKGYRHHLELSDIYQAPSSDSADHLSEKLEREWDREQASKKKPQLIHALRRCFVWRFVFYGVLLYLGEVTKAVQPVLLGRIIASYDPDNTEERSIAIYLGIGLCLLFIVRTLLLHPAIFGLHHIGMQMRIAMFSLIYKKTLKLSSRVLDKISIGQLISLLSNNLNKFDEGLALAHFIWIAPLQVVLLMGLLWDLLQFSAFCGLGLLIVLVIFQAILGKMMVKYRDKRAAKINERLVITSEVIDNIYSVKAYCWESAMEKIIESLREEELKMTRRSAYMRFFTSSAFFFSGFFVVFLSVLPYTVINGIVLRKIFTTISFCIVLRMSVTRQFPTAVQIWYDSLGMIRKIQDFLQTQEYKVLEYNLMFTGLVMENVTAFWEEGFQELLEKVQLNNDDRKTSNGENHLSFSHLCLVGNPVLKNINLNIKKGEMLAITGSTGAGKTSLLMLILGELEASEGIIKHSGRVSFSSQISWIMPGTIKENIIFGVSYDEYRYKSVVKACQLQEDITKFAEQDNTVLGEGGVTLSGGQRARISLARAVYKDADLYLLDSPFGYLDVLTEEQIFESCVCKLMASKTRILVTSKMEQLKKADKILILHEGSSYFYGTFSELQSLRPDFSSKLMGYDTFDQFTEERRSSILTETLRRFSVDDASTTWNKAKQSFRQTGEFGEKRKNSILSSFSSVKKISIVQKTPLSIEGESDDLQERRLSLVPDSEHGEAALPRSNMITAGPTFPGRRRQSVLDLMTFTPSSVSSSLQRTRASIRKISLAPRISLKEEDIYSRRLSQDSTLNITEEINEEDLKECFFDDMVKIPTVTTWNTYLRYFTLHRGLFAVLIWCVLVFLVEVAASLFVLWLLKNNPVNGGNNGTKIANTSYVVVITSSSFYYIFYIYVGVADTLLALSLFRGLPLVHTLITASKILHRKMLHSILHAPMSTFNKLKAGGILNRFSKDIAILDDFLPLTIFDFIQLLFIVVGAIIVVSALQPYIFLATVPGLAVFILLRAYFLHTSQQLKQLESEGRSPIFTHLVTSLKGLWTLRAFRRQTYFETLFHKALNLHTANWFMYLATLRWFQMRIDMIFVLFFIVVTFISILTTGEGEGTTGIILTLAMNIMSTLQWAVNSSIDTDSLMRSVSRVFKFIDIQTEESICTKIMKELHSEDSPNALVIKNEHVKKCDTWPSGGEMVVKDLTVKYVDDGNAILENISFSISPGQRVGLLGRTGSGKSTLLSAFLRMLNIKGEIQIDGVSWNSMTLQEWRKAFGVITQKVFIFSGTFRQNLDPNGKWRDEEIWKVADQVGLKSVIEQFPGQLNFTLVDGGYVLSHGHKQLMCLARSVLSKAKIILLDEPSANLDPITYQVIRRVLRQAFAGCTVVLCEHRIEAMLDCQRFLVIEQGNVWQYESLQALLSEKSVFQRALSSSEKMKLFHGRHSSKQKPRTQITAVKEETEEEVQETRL
T2 sequence (P13569 whole entry): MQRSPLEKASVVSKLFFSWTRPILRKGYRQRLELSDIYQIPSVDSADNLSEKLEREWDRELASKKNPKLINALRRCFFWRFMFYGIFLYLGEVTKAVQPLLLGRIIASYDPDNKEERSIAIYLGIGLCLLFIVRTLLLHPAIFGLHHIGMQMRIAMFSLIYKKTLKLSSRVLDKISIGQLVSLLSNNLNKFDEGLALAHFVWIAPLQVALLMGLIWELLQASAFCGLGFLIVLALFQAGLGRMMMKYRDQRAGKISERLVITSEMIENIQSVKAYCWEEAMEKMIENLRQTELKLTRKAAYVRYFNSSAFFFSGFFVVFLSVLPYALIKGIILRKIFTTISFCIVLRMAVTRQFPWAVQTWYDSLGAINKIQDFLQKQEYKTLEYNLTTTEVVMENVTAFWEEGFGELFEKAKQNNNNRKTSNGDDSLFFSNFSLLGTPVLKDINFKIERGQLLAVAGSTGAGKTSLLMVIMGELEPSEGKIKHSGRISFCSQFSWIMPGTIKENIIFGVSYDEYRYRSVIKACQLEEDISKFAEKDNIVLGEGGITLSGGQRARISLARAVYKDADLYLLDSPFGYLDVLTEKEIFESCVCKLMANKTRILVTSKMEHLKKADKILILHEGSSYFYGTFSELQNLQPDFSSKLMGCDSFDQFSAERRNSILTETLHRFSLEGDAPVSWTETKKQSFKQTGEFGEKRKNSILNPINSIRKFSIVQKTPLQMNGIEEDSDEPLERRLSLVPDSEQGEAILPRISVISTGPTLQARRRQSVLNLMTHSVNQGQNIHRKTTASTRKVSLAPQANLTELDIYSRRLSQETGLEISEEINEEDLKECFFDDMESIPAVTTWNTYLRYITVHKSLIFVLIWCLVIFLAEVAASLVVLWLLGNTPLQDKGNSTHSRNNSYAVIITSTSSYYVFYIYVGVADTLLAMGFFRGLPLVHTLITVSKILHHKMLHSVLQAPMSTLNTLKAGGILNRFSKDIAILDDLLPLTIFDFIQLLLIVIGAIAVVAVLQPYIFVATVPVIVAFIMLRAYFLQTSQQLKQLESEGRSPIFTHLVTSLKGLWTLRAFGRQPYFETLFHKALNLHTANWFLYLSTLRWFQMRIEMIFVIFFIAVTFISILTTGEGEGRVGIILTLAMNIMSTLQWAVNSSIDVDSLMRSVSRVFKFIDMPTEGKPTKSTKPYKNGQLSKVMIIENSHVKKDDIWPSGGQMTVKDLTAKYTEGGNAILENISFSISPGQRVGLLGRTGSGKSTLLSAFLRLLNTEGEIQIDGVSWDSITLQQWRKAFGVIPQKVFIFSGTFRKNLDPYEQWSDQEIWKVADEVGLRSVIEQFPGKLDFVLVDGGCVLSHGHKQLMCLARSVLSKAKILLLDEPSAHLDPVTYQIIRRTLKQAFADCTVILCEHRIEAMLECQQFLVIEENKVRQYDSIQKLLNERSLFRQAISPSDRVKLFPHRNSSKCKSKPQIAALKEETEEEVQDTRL

For CC(=O)OCC[N+](C)(C)C [ACh, acetylcholine, reference compound], the “relaxation (cholinergic test)” value ([1]; rings with endothelium, 10^-4 M) was “approximately 40%”.
For O=C(O)c1ccccc1Nc1ccccc1 [DPC], the “inhibition profile of iodide efflux” value (CFTR [2]) was “sensitivity”.
For CC(C)Cn1c(=O)n(C)c(=O)c2[nH]cnc21 [IBMX], the “activation of iodide efflux” value (CFTR [2]) was “activate iodide efflux”.
For Oc1cc2cccc[n+]2c2c(Cl)cccc12.[Cl-] [MPB-07, 6-hydroxy-10-chlorobenzo[c]quinolizinium chloride], the EC50 ([1]; aorta rings with endothelium, 80 mM KCl, n=14, read-out: EC50, relaxation) was 132.4 ± 0.02 µM, the EC50 ([1]; aorta rings without endothelium, 80 mM KCl, n=7, read-out: EC50, relaxation) was 92.9 ± 0.02 µM and the EC50 [1, 8] was 133 µM. For the same compound, the EC50 [1, 9] was 134 µM, the EC50 ([1]; with endothelium + L-NAME 10^-4 M, n=8, read-out: EC50, relaxation) was 51.8 ± 0.008 µM and the EC50 ([1]; without endothelium + L-NAME, n=7, read-out: EC50, relaxation) was 55.1 ± 0.2 µM. The “reversibility of the relaxing effect” value ([1]; single dose 135 μM, with endothelium, after washing) was “reversible”, the relaxation ([1]; with endothelium + L-NAME, 40 μM) was 33±6.15% and the relaxation ([1]; with endothelium + L-NAME, 160 μM) was 98±1.3%. For the same compound, the relaxation ([1]; with endothelium, 80 μM) was 24±1.6%, the relaxation ([1]; with endothelium, 160 μM) was 64% and the relaxation ([1]; with endothelium, 250 μM) was 88%. The relaxation ([1]; with endothelium, 500 μM) was 96±1.75% and 100%, the relaxation ([1]; without endothelium, 80 μM) was 37±5.6% and the relaxation ([1]; without endothelium, 250 μM) was 99±1%. It also gave a relaxation ([3]; 10 μM, arterenol 10^-4 M, after 2 hours 30 minutes) of 90±9%, an iodide discharge speed ([4]; L-NAME 10^-4 M, 250 μM, 1 minute after addition) of 0.103±0.017 and an iodide discharge speed ([4]; L-NAME 10^-4 M, 250 μM, 2 minutes after addition) of 0.110±0.015. The iodide discharge speed ([4]; L-NAME 10^-4 M, 250 μM, 3 minutes after addition) was 0.119±0.011, the “increase of discharge speed over basal state” value (“increase of discharge speed” for short) ([4]; L-NAME, 1 minute) was 0.044 and the “increase of discharge speed” value ([4]; L-NAME, 2 minutes) was 0.051. For the same compound, the “increase of discharge speed” value ([4]; L-NAME, 3 minutes) was 0.060, the “activation of anionic transport / discharge speed” value [4] was “activates anionic transport” and the iodide discharge speed [4, 10] was 0.076±0.008. The iodide discharge speed [4, 11] was 0.099±0.013, the “increase of discharge speed” value ([4]; without endothelium, 1 minute) was 0.023 and the “increase of discharge speed” value ([4]; without endothelium, 2 minutes) was 0.046. The “iodide discharge speed after stimulation” value ([4]; without endothelium, normal physiological medium, 250 μM, n=3) was 0.076±0.016, the “effect on pre-contracted aorta” value [5] was “relaxation of the pre-contracted aorta” and the IC50 ([5]; Mus musculus, aorta rings contracted by 80 mM K+, n=6) was 37 ± 1.17 µM. The “vasorelaxation in Cftr-/- mice” value [6] was “very considerably reduced; also recorded: absent”, the vasorelaxant effect (human mammary arteries) was “reversible and slow dose-dependent vasorelaxant effect” and the “activity on the CFTR channel” value (CFTR [7]) was “activators of this ion channel”.
For O=c1cc2ccccn2c2c(Cl)cccc12 [MPB-70, 10-chlorobenzo[c]quinolizine-6-one, reference compound], the relaxation ([1]; with endothelium, 160 μM) was 27%, the relaxation ([1]; with endothelium, 250 μM) was 42% and the relaxation ([1]; with endothelium, 500 μM) was 46%. The “activation of anionic transport / discharge speed” value [4] was “no increase in the discharge speed”, the iodide discharge speed [4, 10] was 0.053±0.003 and the iodide discharge speed [4, 11] was 0.055±0.005. The “activity on the CFTR channel” value (CFTR [7]) was “inactive on CFTR of epithelial cells”.
With CCCCc1c(O)c2cccc(Cl)c2[n+]2ccccc12.[Cl-] [MPB-91, 5-n-Butyl-10-chloro-6-hydroxybenzo[c]quinolizinium chloride] the EC50 [1, 8] was 21 µM, the EC50 [1, 9] was 21 µM and the melting point was 160 °C.
In the case of Nc1ncnc2c1nc(Sc1ccc(Cl)cc1)n2[C@@H]1O[C@@H]2COP(=O)(O)O[C@H]2[C@H]1O [cpt-cAMP], the “activation of iodide efflux” value (CFTR [2]) is reported as “activate iodide efflux”.
In the case of COc1ccc(Cl)cc1C(=O)NCCc1ccc(S(=O)(=O)NC(=O)NC2CCCCC2)cc1 [glibenclamide], the “inhibition profile of iodide efflux” value (CFTR [2]) is reported as “sensitivity”.
With COc1ccc(CCN(C)CCCC(C#N)(c2ccc(OC)c(OC)c2)C(C)C)cc1OC (stereo not shown) [verapamil, Verapamil, reference compound] the “effect on rapid contracture oscillations” value ([3]; 200 μM, added after MPB-07 10 μM) was “stops these variations”.
In the case of “Vasoactive Intestinal Polypeptide [VIP, reference compound]”, the “effect on pre-contracted aorta” value [5] is reported as “relaxation of the pre-contracted aorta”, the “vasorelaxation in Cftr-/- mice” value [6] is reported as “very considerably reduced” and the “activation of iodide efflux” value (CFTR [2]) is reported as “activate iodide efflux”.
